Measurements taken from US11345673B2, “1-phenylpropanone compounds and use thereof” (UNIVERSITA' DEGLI STUDI DI PADOVA, priority 2016, dated 2022).

What was measured:
[1] = tested on: primary lymphocytic tumor cells taken from patients with chronic lymphatic leukemia (LLC); assay: Proapoptotic effect by annexin V/propidium iodide flow cytofluorometry, LLC cells; format: cell-based; details: Homo sapiens, 24 hours incubation, three experiments in triplicate, read-out: IC50 ± S.D. (concentration required to cause 50% apoptosis), LLC
Text: (§1) Flow cytofluorometry was used to evaluate the ability of some compounds of the invention to induce cell death, with particular reference to apoptosis. This latter phenomenon is characterized by morphological modification of the plasmatic membrane as a result of the translocation of the phospholipid phosphatidylserine (PS) in the plasmatic membrane from the cytoplasmic side to the outer surface of the cell. […] Annexin is detected because it is conjugated to a specific fluorochrome, thus allowing to distinguish apoptosis from necrotic phenomena, which are instead measured by the fluorescent dye propidium iodide, which penetrates freely in the cell having a damaged plasmatic membrane.
(§2) Both primary lymphocytic tumor cells taken from patients with chronic lymphatic leukemia (LLC) and humanized cell lines of neuroblastoma (SK-N-BE), hepatocarcinoma (HepG2 and HUH7.5) and breast cancer (MDA-MB-231) were used.
(§3) HepG2 (2×10^5 cells per well), HUH7.5 and MDA-MB-231 (1.5×10^5 cells per well) cells were seeded on a 6-well plate in Dulbecco's Modified Eagle Medium (DMEM), 10% FBS and cultured at 37° C. in a 5% CO2 atmosphere. After 24 hours, the medium was removed and replaced by DMEM containing the test compounds, previously dissolved in 100% dimethylsulfoxide, and diluted such that the final concentration of the same in cell incubation solutions was 0.5% (v/v). After 30 minutes incubation, 10% FBS was added, and the cells were incubated for 24 hours, then detached with trypsin, and analyzed by cytofluorimeter. LLC cells (1×10^6 cells per well) were seeded and cultured on 12-well plates in RPMI-1640 medium, 10% FBS, at 37° C. in a humified atmosphere containing 5% CO2. To this medium, test compounds were added, and incubation was carried out for 24 hours, after which time the cells were analyzed by cytofluorimeter.
Leukemic lymphocytes were isolated, following heparinized venous withdrawal from peripheral blood of LLC patients, diluted with saline in a 1:3 ratio, layered on a Ficoll/Hypaque (F/H) density gradient, centrifuged at 900 rpm for 20 minutes, at 20° C. without brakes. Mononuclear cells and platelets, concentrating on top of the F/H gradient, were separated after 2 further washings, with centrifugation at 400 rpm at room temperature. The mononuclear cells thus obtained were washed 3 times with PBS, centrifuged for 10 minutes at 400 rpm, at 20° C. with brakes, and resuspended in RPMI 1640.
In most LLC cases, the percentage of leukemic B cells was higher than 85% with respect to all mononuclear cells from peripheral blood.
(§4) The results obtained by cytofluorometry from three separate experiments executed in triplicate were tabulated, estimating the concentration required to cause 50% apoptosis (IC50), and standard deviation.

[2] = tested on: neuroblastoma (SK-N-BE) cells; assay: Proapoptotic effect by flow cytofluorometry, SK-N-BE cells; format: cell-based; details: Homo sapiens, three experiments in triplicate, read-out: IC50 ± S.D. (concentration required to cause 50% apoptosis), SK-N-BE
Text: as §1
Both primary lymphocytic tumor cells taken from patients with chronic lymphatic leukemia (LLC) and humanized cell lines of neuroblastoma (SK-N-BE), hepatocarcinoma (HepG2 and HUH7.5) and breast cancer (MDA-MB-231) were used. […]
as §4

[3] = tested on: hepatocarcinoma (HepG2) cells; assay: Proapoptotic effect by flow cytofluorometry, HepG2 cells; format: cell-based; details: Homo sapiens, 24 hours incubation, three experiments in triplicate, read-out: IC50 ± S.D. (concentration required to cause 50% apoptosis), HepG2
Text: as §1, §2, §3, §4

[4] = tested on: hepatocarcinoma (HUH7.5) cells; assay: Proapoptotic effect by flow cytofluorometry, HUH7.5 cells; format: cell-based; details: Homo sapiens, 24 hours incubation, three experiments in triplicate, read-out: IC50 ± S.D. (concentration required to cause 50% apoptosis), HUH7.5
Text: as §1, §2, §3, §4

[5] = tested on: breast cancer (MDA-MB-231) cells; assay: Proapoptotic effect by flow cytofluorometry, MDA-MB-231 cells; format: cell-based; details: Homo sapiens, 24 hours incubation, three experiments in triplicate, read-out: IC50 ± S.D. (concentration required to cause 50% apoptosis), MDA-MB-231
Text: as §1, §2, §3, §4

[6] = tested on: breast cancer and multiple myeloma cells; details: cited from earlier work

IC50 [1] | IC50 [2] | IC50 [3] | IC50 [4] | IC50 [5] | Structure (SMILES) | IC50 ([6]; breast cancer and multiple myeloma cells, articles of D. Ju et al., read-out: induction of caspase-dependent apoptosis (IC50 values)) | cytotoxic effects of dyclonine alone ([6]; in vitro, alone without MG132 or bortezomib)
550 ± 90 nM | 600 ± 50 nM | 570 ± 80 nM | 630 ± 80 nM | 660 ± 120 nM | CCCCCCCSc1ccc(C(=O)CCN2CCOCC2)cc1 [Compound 8, 1-(4-(heptylthio)phenyl)-3-morpholinopropan-1-one] |  | 
3030 ± 70 nM | 2930 ± 80 nM | 3000 ± 150 nM | 2780 ± 130 nM | 3010 ± 150 nM | CCCCCCCOc1ccc(C(=O)CCN2CCCCC2)cc1 [Compound 4, 1-(4-(heptyloxy)phenyl)-3-(piperidin-1-yl)propan-1-one] |  | 
1750 ± 40 nM | 1850 ± 140 nM | 1660 ± 100 nM | 1730 ± 90 nM | 1800 ± 60 nM | CCCCCSc1ccc(C(=O)CCN2CCCCC2)cc1 [Compound 9, 1-(4-(pentylthio)phenyl)-3-(piperidin-1-yl)propan-1-one] |  | 
8500 ± 80 nM | 8200 ± 100 nM | 8000 ± 100 nM | 8250 ± 120 nM | 8000 ± 70 nM | CCCCCSc1ccc(C(=O)CCN2CCOCC2)cc1 [Compound 6, 3-morpholino-1-(4-(pentylthio)phenyl)propan-1-one] |  | 
1620 ± 150 nM | 1640 ± 90 nM | 1550 ± 130 nM | 1580 ± 100 nM | 1610 ± 70 nM | CCCCCCCOc1ccc(C(=O)CCN2CCOCC2)cc1 [Compound 2, 1-(4-(heptyloxy)phenyl)-3-morpholinopropan-1-one] |  | 
1610 ± 100 nM | 1850 ± 90 nM | 1670 ± 150 nM | 1580 ± 70 nM | 1610 ± 80 nM | CCCCCCOc1ccc(C(=O)CCN2CCOCC2)cc1 [Compound 1, 1-(4-(hexyloxy)phenyl)-3-morpholinopropan-1-one] |  | 
440 ± 60 nM | 450 ± 70 nM | 500 ± 90 nM | 520 ± 100 nM | 470 ± 100 nM | CCCCCCCSc1ccc(C(=O)CCN2CCN(C)CC2)cc1 [Compound 14, 1-(4-(heptylthio)phenyl)-3-(4-methylpiperazin-1-yl)propan-1-one] |  | 
12200 ± 110 nM | 13170 ± 120 nM | 12950 ± 50 nM | 14540 ± 120 nM | 11850 ± 70 nM | CCCCCSc1ccc(C(=O)CCN2CCN(C)CC2)cc1 [Compound 12, 3-(4-methylpiperazin-1-yl)-1-(4-(pentylthio)phenyl)propan-1-one] |  | 
850 ± 60 nM | 750 ± 130 nM | 800 ± 70 nM | 950 ± 60 nM | 900 ± 50 nM | CCCCCCCc1ccc(C(=O)CCN2CCN(C)CC2)cc1 [Compound 26, 1-(4-heptylphenyl)-3-(4-methylpiperazin-1-yl)propan-1-one] |  | 
2530 ± 150 nM | 3000 ± 170 nM | 3070 ± 90 nM | 2750 ± 90 nM | 2600 ± 100 nM | CCCCCCOc1ccc(C(=O)CCN2CCCCC2)cc1 [Compound 3, 1-(4-(hexyloxy)phenyl)-3-(piperidin-1-yl)propan-1-one] |  | 
1500 ± 80 nM | 1600 ± 100 nM | 1550 ± 90 nM | 1500 ± 100 nM | 1650 ± 750 nM | CCCCCCCc1ccc(C(=O)CCN2CCCCC2)cc1 [Compound 25, 1-(4-heptylphenyl)-3-(piperidin-1-yl)propan-1-one] |  | 
1450 ± 60 nM | 1550 ± 100 nM | 1600 ± 50 nM | 1610 ± 80 nM | 1480 ± 90 nM | CCCCCCCOc1ccc(C(=O)CCN2CCN(C)CC2)cc1 [Compound 5, 1-(4-(heptyloxy)phenyl)-3-(4-methylpiperazin-1-yl)propan-1-one] |  | 
500 ± 150 nM | 500 ± 170 nM | 500 ± 80 nM | 500 ± 65 nM | 550 ± 80 nM | CCCCCCCc1ccc(C(=O)CCN2CCOCC2)cc1 [Compound 24, 1-(4-heptylphenyl)-3-morpholinopropan-1-one] |  | 
500 ± 200 nM | 530 ± 90 nM | 490 ± 110 nM | 560 ± 200 nM | 500 ± 200 nM | CCCCCCSc1ccc(C(=O)CCN2CCOCC2)cc1 [Compound 7, 1-(4-(hexylthio)phenyl)-3-morpholinopropan-1-one] |  | 
 |  |  |  |  | CCCCOc1ccc(C(=O)CCN2CCCCC2)cc1 [dyclonine] | 15 to 30 µM | very limited cytotoxic effects
500 ± 40 nM | 540 ± 90 nM | 590 ± 10 nM | 490 ± 70 nM | 560 ± 60 nM | CCCCCCCSc1ccc(C(=O)CCN2CCCCC2)cc1 [Compound 11, 1-(4-(heptylthio)phenyl)-3-(piperidin-1-yl)propan-1-one] |  | 
1870 ± 70 nM | 1670 ± 50 nM | 1700 ± 50 nM | 1800 ± 110 nM | 1800 ± 90 nM | CCCCCCSc1ccc(C(=O)CCN2CCCCC2)cc1 [Compound 10, 1-(4-(hexylthio)phenyl)-3-(piperidin-1-yl)propan-1-one] |  | 
650 ± 10 nM | 670 ± 90 nM | 590 ± 60 nM | 600 ± 120 nM | 650 ± 10 nM | CCCCCCSc1ccc(C(=O)CCN2CCN(C)CC2)cc1 [Compound 13, 1-(4-(hexylthio)phenyl)-3-(4-methylpiperazin-1-yl)propan-1-one] |  | 

Structure (SMILES) | IC50 [1] | IC50 [2] | IC50 [3] | IC50 [4] | IC50 [5] | IC50 ([6]; breast cancer and multiple myeloma cells, articles of D. Ju et al., read-out: induction of caspase-dependent apoptosis (IC50 values)) | cytotoxic effects of dyclonine alone ([6]; in vitro, alone without MG132 or bortezomib)
CCCCC[Se]c1ccc(C(=O)CCN2CCOCC2)cc1 [Compound 15, 3-morpholino-1-(4-(pentylselenyl)phenyl)propan-1-one] | 14200 ± 170 nM | 15710 ± 130 nM | 11110 ± 70 nM | 12200 ± 80 nM | 13900 ± 140 nM |  | 
CCCCCC[Se]c1ccc(C(=O)CCN2CCN(C)CC2)cc1 [Compound 22, 1-(4-(hexylselenyl)phenyl)-3-(4-methylpiperazin-1-yl)propan-1-one] | 8150 ± 70 nM | 8200 ± 70 nM | 8100 ± 100 nM | 8000 ± 60 nM | 8100 ± 70 nM |  | 
CCCCC[Se]c1ccc(C(=O)CCN2CCN(C)CC2)cc1 [Compound 21, 3-(4-methylpiperazin-1-yl)-1-(4-(pentylselenyl)phenyl)propan-1-one] | 14160 ± 90 nM | 13880 ± 130 nM | 15570 ± 30 nM | 13600 ± 90 nM | 14230 ± 140 nM |  | 
CCCCCC[Se]c1ccc(C(=O)CCN2CCOCC2)cc1 [Compound 16, 1-(4-(hexylselenyl)phenyl)-3-morpholinopropan-1-one] | 2530 ± 90 nM | 2470 ± 60 nM | 2620 ± 80 nM | 2600 ± 100 nM | 2580 ± 90 nM |  | 
CCCCC[Se]c1ccc(C(=O)CCN2CCCCC2)cc1 [Compound 18, 1-(4-(pentylselenyl)phenyl)-3-(piperidin-1-yl)propan-1-one] | 8500 ± 150 nM | 8000 ± 100 nM | 7500 ± 150 nM | 8300 ± 80 nM | 7900 ± 100 nM |  | 
CCCCCC[Se]c1ccc(C(=O)CCN2CCCCC2)cc1 [Compound 19, 1-(4-(hexylselenyl)phenyl)-3-(piperidin-1-yl)propan-1-one] | 10100 ± 80 nM | 11650 ± 60 nM | 12480 ± 120 nM | 11980 ± 110 nM | 13010 ± 120 nM |  | 
CCCCCCC[Se]c1ccc(C(=O)CCN2CCN(C)CC2)cc1 [Compound 23, 1-(4-(heptylselenyl)phenyl)-3-(4-methylpiperazin-1-yl)propan-1-one] | 1770 ± 50 nM | 1750 ± 90 nM | 1700 ± 50 nM | 1690 ± 80 nM | 1700 ± 90 nM |  | 
CCCCCCC[Se]c1ccc(C(=O)CCN2CCOCC2)cc1 [Compound 17, 1-(4-(heptylselenyl)phenyl)-3-morpholinopropan-1-one] | 550 ± 40 nM | 500 ± 60 nM | 600 ± 70 nM | 500 ± 100 nM | 550 ± 70 nM |  | 
CCCCCCC[Se]c1ccc(C(=O)CCN2CCCCC2)cc1 [Compound 20, 1-(4-(heptylselenyl)phenyl)-3-(piperidin-1-yl)propan-1-one] | 1700 ± 50 nM | 1680 ± 130 nM | 1740 ± 50 nM | 1730 ± 90 nM | 1750 ± 100 nM |  | 
